Experiment: CD measurements of folding in water/TFE mixtures
Format: physicochemical
Settings: CD in water/TFE mixtures (>= 2 M TFE), fit with Eq. S11

Substance | folding free energy [kcal/mol]
Ac-CGWWLALALALALALALALALWWA-NH2 [WALP23] | 4.6 ± 0.2
Ac-CGWWLALALALALALALALALALALWWA-NH2 [WALP27] | 4.8 ± 0.2

From paper PMC3273640 (Journal of Molecular Biology, 2011)
